From US20230024461A1, “METHODS FOR DUAL DNA/PROTEIN TAGGING OF OPEN CHROMATIN” (Beth Israel Deaconess Medical Center, Inc., priority 2019, published 2023)

Key:
[1] = tested on: NB4 cells; assay: Cell proliferation assay (CellTiter-Glo); assay type: cell-based, human; conditions: 1 μM ATRA, 48 hours, versus DMSO
Procedure: Cell proliferation assay. NB4 cells were seeded at a density of 5e5 cells/mL subjected to either DMSO or 1 μM ATRA. After 48 hours, 50 μL cell suspension was added to 50 μL CellTiter-Glo reagent, incubated for 10 minutes at room temperature, and assayed for luminescence with a SpectraMax iD3 plate reader.

[2] = tested on: NB4 cells; assay: Granulocytic differentiation analysis (flow cytometry); assay type: cell-based, human; conditions: 1 μM ATRA, 48 hours, versus DMSO
Procedure: NB4 cells treated either with DMSO or 1 μM ATRA were washed with 2% fetal bovine serum prior to staining. Anti-human CD11b-PE-Cy7 antibody conjugate (Clone: ICRF44, Biolegend Catalog #301321; 1:100) and anti-human CD11c-APC antibody conjugate (Clone: B-1y6, BD Pharmingen #559877; 1:100) were incubated with samples for 20 minutes and then washed to remove excess antibody. Stained samples were analyzed on a Beckman Coulter CytoFLEX LX flow cytometer with the CytoExpert v2.3.1.22 software. Data were analyzed with FlowJo v10.0.7.

[3] = tested on: NB4 cells; assay: iDAPT-MS of NB4 nuclei, ATRA versus DMSO; assay type: cell-based, human; conditions: TP3 probe
Procedure: DNA and protein tagging by iDAPT. All iDAPT proteomic labeling assays were performed as described below unless indicated otherwise. 2.5 μmol MEDS-A/B, 2 μmol enzyme, and 1 μmol hemin chloride per channel were incubated at room temperature for 1 hour. 1e7 cells per sample were washed (500×g, 5 minutes, 4° C.), lysed and triturated in 100 μL LB1 (10 mM Tris-HCl pH 7.5, 10 mM NaCl, 3 mM MgCl2, 1% BSA, 0.01% digitonin, 0.1% Tween-20, 0.1% NP-40, and 1× cOmplete EDTA-free protease inhibitor cocktail [Roche]) for 3 minutes, and subsequently supplemented with an additional 1 mL of LB2 (10 mM Tris-HCl pH 7.5, 10 mM NaCl, 3 mM MgCl2, 1% BSA, 0.1% Tween-20, and 1× protease inhibitor). Nuclei were pelleted (500×g, 10 minutes, 4° C.), resuspended with tagmentation reaction mixture (20% dimethylformamide, 10 mM MgCl2, 20 mM Tris-HCl pH 7.5, 33% 1×PBS, 1% BSA, 0.01% digitonin, 0.1% Tween-20, 500 μM biotin-phenol, 1× protease inhibitor, and 2 pmol enzyme equivalent of enzyme:DNA:heme complex in a total volume of 500 μL), and incubated at 37° C. for 30 minutes with agitation on a thermomixer (1,000 rpm). […] Lysates were clarified by centrifugation (15,000×g, 20 minutes, 4° C.), quantified via the detergent-compatible Bradford assay (Thermo Fisher Scientific), and subjected to either Western blotting or quantitative mass spectrometry analyses as described below. […]

[4] = biological target: T1, PML-RARA oncogenic fusion protein (Homo sapiens, UniProt P10276+P29590); assay: Western blotting analysis of the PML epitope; assay type: cell-based; conditions: NB4 cells, 48 hours ATRA versus DMSO
T1 construct: PML portion (fusion partner, human Protein PML, P29590); endogenous in cells; host or cells: NB4 acute promyelocytic leukemia cells
T1 sequence (P29590+P10276 with tags, fused parts or gaps): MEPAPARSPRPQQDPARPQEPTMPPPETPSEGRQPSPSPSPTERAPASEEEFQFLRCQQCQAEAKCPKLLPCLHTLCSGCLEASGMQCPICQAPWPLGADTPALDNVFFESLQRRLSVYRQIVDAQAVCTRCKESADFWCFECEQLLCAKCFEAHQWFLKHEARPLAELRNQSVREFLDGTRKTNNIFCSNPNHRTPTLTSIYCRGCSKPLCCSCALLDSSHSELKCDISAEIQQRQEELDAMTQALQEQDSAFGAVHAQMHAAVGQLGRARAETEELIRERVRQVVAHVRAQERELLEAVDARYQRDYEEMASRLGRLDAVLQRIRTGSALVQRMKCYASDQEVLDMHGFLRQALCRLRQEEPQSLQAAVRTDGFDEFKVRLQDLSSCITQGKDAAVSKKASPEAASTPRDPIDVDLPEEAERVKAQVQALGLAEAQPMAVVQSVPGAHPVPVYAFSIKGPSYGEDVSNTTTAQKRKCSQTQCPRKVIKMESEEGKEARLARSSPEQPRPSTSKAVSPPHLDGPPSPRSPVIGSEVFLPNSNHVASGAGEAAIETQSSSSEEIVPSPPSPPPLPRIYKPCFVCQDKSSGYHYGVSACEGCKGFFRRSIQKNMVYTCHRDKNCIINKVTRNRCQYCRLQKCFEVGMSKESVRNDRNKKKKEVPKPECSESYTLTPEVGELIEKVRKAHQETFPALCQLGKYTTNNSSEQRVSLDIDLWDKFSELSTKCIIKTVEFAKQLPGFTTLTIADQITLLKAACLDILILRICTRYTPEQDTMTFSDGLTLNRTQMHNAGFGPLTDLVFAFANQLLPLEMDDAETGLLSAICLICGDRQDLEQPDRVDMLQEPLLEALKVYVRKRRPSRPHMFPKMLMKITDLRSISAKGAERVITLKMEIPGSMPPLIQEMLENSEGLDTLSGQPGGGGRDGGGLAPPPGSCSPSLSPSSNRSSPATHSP
Procedure: Western blotting analysis. Whole cell or nuclear lysates were generated by resuspending cells or nuclei in RIPA (Boston BioProducts) supplemented with 1× cOmplete EDTA-free protease inhibitor cocktail (Roche). Lysates were incubated on ice for 30 minutes, sonicated via a Sonic Dismembrator 100 (Fisher Scientific) at setting 3 with 3-4 pulses of 15 seconds on/off on ice, and treated with benzonase for an additional 30 minutes on ice. Lysates were clarified by centrifugation (15,000×g, 20 minutes, 4° C.) and their concentrations quantified via the detergent-compatible Bradford assay (Thermo Fisher Scientific). All Western blots were run on NuPAGE 4-12% Bis-Tris protein gels (Thermo Fisher Scientific) and transferred to 0.2 μm nitrocellulose membranes (GE Healthcare). Membranes were blocked with 3% milk in PBS-T and incubated overnight with primary antibody and subsequently with secondary antibody after brief washing with PBS-T. Chemiluminescence was determined by applying ECL Western Blotting detection reagent (GE Healthcare) to membranes and imaging on an Amersham Imager 600 (GE Healthcare). Membranes were stripped with Restore PLUS Stripping Buffer (Thermo Fisher Scientific). Primary antibodies used were anti-FLAG M2 (mouse, Sigma-Aldrich, F1804, 1:2000), anti-PCNA (mouse, PC10, Santa Cruz Biotechnology sc-56, 1:1000), and anti-PML (rabbit, Bethyl A301-[MUT], 1:1000). […]

[5] = tested on: HEK293T nuclei; assay: iDAPT protein labeling, western blot of labeled nuclear lysates; assay type: biochemical, human; conditions: extracted HEK293T nuclei
Procedure: DNA and protein tagging by iDAPT. All iDAPT proteomic labeling assays were performed as described below unless indicated otherwise. 2.5 μmol MEDS-A/B, 2 μmol enzyme, and 1 μmol hemin chloride per channel were incubated at room temperature for 1 hour. 1e7 cells per sample were washed (500×g, 5 minutes, 4° C.), lysed and triturated in 100 μL LB1 (10 mM Tris-HCl pH 7.5, 10 mM NaCl, 3 mM MgCl2, 1% BSA, 0.01% digitonin, 0.1% Tween-20, 0.1% NP-40, and 1× cOmplete EDTA-free protease inhibitor cocktail [Roche]) for 3 minutes, and subsequently supplemented with an additional 1 mL of LB2 (10 mM Tris-HCl pH 7.5, 10 mM NaCl, 3 mM MgCl2, 1% BSA, 0.1% Tween-20, and 1× protease inhibitor). Nuclei were pelleted (500×g, 10 minutes, 4° C.), resuspended with tagmentation reaction mixture (20% dimethylformamide, 10 mM MgCl2, 20 mM Tris-HCl pH 7.5, 33% 1×PBS, 1% BSA, 0.01% digitonin, 0.1% Tween-20, 500 μM biotin-phenol, 1× protease inhibitor, and 2 pmol enzyme equivalent of enzyme:DNA:heme complex in a total volume of 500 μL), and incubated at 37° C. for 30 minutes with agitation on a thermomixer (1,000 rpm). 5 μL of tagmentation mix was saved for quality assessment as described above for ATAC-seq/iDAPT-seq sample preparation. The remaining nuclear suspension was then washed 2× with 1×PBS supplemented with 500 μM biotin-phenol, 1% BSA, 0.1% Tween-20, and 1× protease inhibitor (3000×g, 5 minutes, 4° C.) and labeled with 1 mM hydrogen peroxide and 500 μM biotin-phenol for 1 minute in 1×PBS with 1× protease inhibitor in a volume of 500 μL. Peroxidation reactions were quenched with 500 μL 2× quenching buffer (10 mM Trolox, 20 mM sodium ascorbate, 20 mM NaN3, and 1× protease inhibitor in 1×PBS). Labeled nuclei were then pelleted, washed with 1× quenching buffer, resuspended in 500 μL RIPA containing protease inhibitors, and frozen at −80° C. Lysates were thawed on ice, sonicated via a Sonic Dismembrator 100 (Fisher Scientific, setting 3, 15 seconds, 4 pulses), and incubated on ice for 30 minutes after the addition of 1 μL benzonase (EMD Millipore). Lysates were clarified by centrifugation (15,000×g, 20 minutes, 4° C.), quantified via the detergent-compatible Bradford assay (Thermo Fisher Scientific), and subjected to either Western blotting or quantitative mass spectrometry analyses as described below. For NB4 cell analysis, an additional endogenous peroxidase blocking step was added after nuclear extraction and before tagmentation: nuclei were resuspended in 500 μL 1×PBS containing 1% BSA, 0.03% hydrogen peroxide, and 0.1% NaN3 and incubated on ice for 30 minutes. Nuclei were pelleted and washed 4× with 1×PBS/1% BSA (3000×g, 5 minutes, 4° C.). Residual hydrogen peroxide was monitored by colorimetric assessment of supernatant via Quantofix peroxides test stick (Sigma).
Western blotting analysis. Whole cell or nuclear lysates were generated by resuspending cells or nuclei in RIPA (Boston BioProducts) supplemented with 1× cOmplete EDTA-free protease inhibitor cocktail (Roche). […] Lysates were clarified by centrifugation (15,000×g, 20 minutes, 4° C.) and their concentrations quantified via the detergent-compatible Bradford assay (Thermo Fisher Scientific). […] Membranes were blocked with 3% milk in PBS-T and incubated overnight with primary antibody and subsequently with secondary antibody after brief washing with PBS-T. Chemiluminescence was determined by applying ECL Western Blotting detection reagent (GE Healthcare) to membranes and imaging on an Amersham Imager 600 (GE Healthcare). […]

[6] = Peroxidase activity assay (Amplex UltraRed/resorufin fluorescence); assay type: biochemical; conditions: 1 mM hydrogen peroxide, one minute
Procedure: Peroxidase activity assay. 5 pmol enzyme was incubated with 2.5 pmol hemin chloride (dissolved in DMSO, Cayman Chemical) for 1 hour at room temperature. This molar ratio was selected given reports of APEX2 maximal heme occupancy between 40-57%. Heme:protein complexes were then subjected to 50 μM Amplex UltraRed (Thermo Fisher Scientific) and 1 mM hydrogen peroxide for 1 minute at room temperature in a total volume of 100 μL with 1×PBS. Reactions were then quenched with 100 μL 2× quenching solution (10 mM Trolox, 20 mM sodium ascorbate, and 20 mM NaN3 in 1×PBS), and fluorescence intensities were measured on a SpectraMax iD3 plate reader, with excitation at 530 nm and emission at 590 nm.
Peroxidase activity assay. 5 pmol enzyme was incubated with 2.5 pmol hemin chloride (Cayman Chemical, dissolved in DMSO) for 1 hour at room temperature. This molar ratio was selected given reports of APEX2 maximal heme occupancy between 40-57%. […] Reactions were then quenched with 100 μL 2× quenching solution (10 mM Trolox, 20 mM sodium ascorbate, and 20 mM NaN3 in 1×PBS), and fluorescence intensities were measured on a SpectraMax iD3 plate reader with the SoftMax Pro v7.0.3 software, with excitation at 530 nm and emission at 590 nm.

In the case of `CC1=C(/C=C/C(C)=C/C=C/C(C)=C/C(=O)O)C(C)(C)CCC1` [ATRA, All-trans retinoic acid], the “proliferation (cell counts)” value [1] is reported as “decreased proliferation”, the differentiation [2] is reported as “granulocytic differentiation” and the “enrichment of PU.1/SPI1, CEBPB, and CEBPE on open chromatin” value [3] is reported as “positive enrichment”. For the same molecule, the “enrichment of RARA on open chromatin” value [3] was “negative enrichment” and the “effect on PML-RARA oncogenic fusion protein” value [4] was “degradation of the PML-RARA oncogenic fusion protein”.

B1: APEX2-F: FLAG-tagged APEX2 peroxidase alone, negative control probe; amino acid SEQ ID NO: 21 (protein)
chain: MGKSYPTVSADYQDAVEKAKKKLRGFIAEKRCAPLMLRLAFHSAGTFDKGTKTGGPFGTIKHPAELAHSANNGLDIAVRLLEPLKAEFPILSYADFYQLAGVVAVEVTGGPKVPFHPGREDKPEPPPEGRLPDPTKGSDHLRDVFGKAMGLTDQDIVALSGGHTIGAAHKERSGFEGPWTSNPLIFDNSYFTELLSGEKEGLLQLPSDKALLSDPVFRPLVDKYAADEDAFFADYAEAHQKLSELGFADADYKDDDDK
modifications: FLAG tag
With B1 the peroxidase-dependent biotin signal [5] was “low signal” and the “peroxidase activity via resorufin fluorescence” value [6] was “detected”.
